Structures can show the parent of a compound that is named as a salt.

As a reminder, the IC50 is the concentration at which inhibition is half-maximal.

This experiment concerns up-regulation of ICAM-1 (CD54) by IFNγ in U937 human monocytic cells. Kind of experiment: U937 IFNγ ICAM1 FACS Assay. Type of experiment: cell-based. To be noted: Homo sapiens, U-937, U937 cells stimulated with IFNγ, ICAM-1 expression by FACS; read-out: IC50, Example 44. An excerpt:
The activity of the compounds of the invention may additionally be characterized by assaying the effect of the 2,4-substituted pyrimidinediamine compounds described herein on A549 lung epithelial cells and U937 cells. A549 lung epithelial cells and U937 cells up-regulate ICAM-1 (CD54) surface expression in response to a variety of different stimuli. Therefore, using ICAM-1 expression as readout, test compound effects on different signaling pathways can be assessed in the same cell type. Stimulation with IL-1β through the IL-1β receptor activates the TRAF6/NFκB pathway resulting in up-regulation of ICAM-1. IFNγ induces ICAM-1 up-regulation through activation of the JAK1/JAK2 pathway. The up-regulation of ICAM-1 can be quantified by flow cytometry across a compound dose curve and EC50, values are calculated.
U937 human monocytic cells up-regulate ICAM-1 (CD54) surface expression in response to a variety of different stimuli. Therefore, using ICAM-1 expression as readout, compound effects on different signaling pathways can be assessed in the same cell type. IFNγ up-regulates ICAM-1 through activation of the JAK/Stat pathway. In this example, the up-regulation of ICAM-1 by IFNγ was assessed.
The U937 human monocytic cell line was obtained from ATCC of Rockville Maryland, catalog number CRL-1593.2, and cultured in RPM1-1640 medium containing 10% (v/v) FCS. U937 cells were grown in 10% RPMI. The cells were then plated at a concentration of 100,000 cells per 160 μL in 96 well flat bottom plates. […] Then 4 μL of test compound was transferred to 76 μL of 10% RPMI resulting in a 10× solution (100 μM test compound, 5% DMSO). For control wells, 4 μL of DMSO was diluted into 76 μL 10% RPMI.
The assay was performed in duplicate with 8 points (8 3-fold dilution concentrations from […]) and with 4 wells of DMSO only (control wells) under stimulated conditions and 4 wells of DMSO only under unstimulated conditions.
The diluted compound plate was mixed 2× using a multimek (Beckman Coulter of Brea, California) and then 20 μL of the diluted compounds was transferred to the 96 well plate containing 160 μL of cells, which were then mixed again twice at low speeds. The cells and compounds were then pre-incubated for 30 minutes at 37° C. with 5% CO2.
The 10× stimulation mix was made by preparing a 100 ng/mL solution of human IFNγ in 10% RPMI. […] The cells were kept under conditions for stimulation for 18-24 hours at 37° C. with 5% CO2.
The cells were transferred to a 96 well round bottom plate for staining and then kept on ice for the duration of the staining procedure. Cells were spun down at 1000 rpm for 5 minutes at 4° C., following which the supernatant was removed. Following removal of the supernatant, 1 μL APC conjugated mouse anti-human ICAM-1 antibody was added per 100 μL FACS buffer. The cells were then incubated on ice in the dark for 30 minutes. Following incubation, […] of FACS buffer was added and the cells were centrifuged at 1000 rpm for 5 minutes at 4° C., following which the supernatant was removed. After removal of the supernatant, 200 μL of FACS buffer was added and the cells were resuspended. After suspension, the cells were centrifuged at 1000 rpm for 5 min at 4° C. Supernatant was then removed prior to resuspension of the cells in 150 μL FACS buffer.
Detection was performed using a BD LSR I System Flow Cytometer, purchased from BD Biosciences of San Jose, California The live cells were gated for live scatter and the geometric mean of ICAM-APC was measured (Becton-Dickinson CellQuest software version 3.3, Franklin Lakes, NJ). Both % live cells and ICAM-1 expression was analyzed. The assays for the test compounds were carried out in parallel with a control compound of known activity.
Background: Flow cytometry measures light scatter and fluorescence of single cells or particles in a stream.
On to `COc1ccc(CN2C(=O)C(C)Sc3ccc(Nc4nc(Nc5ccc(S(N)(=O)=O)cc5)ncc4F)cc32)cc1` (racemic) [Compound V-10, (R/S)-N2-(4-Aminosulphonylphenyl)-5-fluoro-N4-[2-methyl-3-oxo-4-(4-methoxybenzyl)-benzo[1,4]thiazin-6-yl]-2,4-pyrimidinediamine], for which the IC50 amounted to 2.7 µM. As for `N#CCN1C(=O)COc2ccc(Nc3nc(Nc4ccc(S(N)(=O)=O)cc4)ncc3F)cc21` [Compound V-6, N2-(4-Aminosulphonylphenyl)-5-fluoro-N4-(3-oxo-4-cyanomethyl-benz[1,4]oxazin-6-yl]-2,4-pyrimidinediamine], the IC50 worked out at 0.572 µM. Turning to `N#CCN1C(=O)COc2ccc(Nc3nc(Nc4cccc(S(N)(=O)=O)c4)ncc3F)cc21` [Compound V-7, N2-(3-Aminosulphonylphenyl)-5-fluoro-N4-(3-oxo-4-cyanomethyl-benz[1,4]oxazin-6-yl]-2,4-pyrimidinediamine], the IC50 was determined as 0.821 µM. Regarding `Cc1ccc(Nc2ncc(F)c(Nc3ccc4c(c3)N(CC#N)C(=O)CO4)n2)cc1S(N)(=O)=O` [Compound V-8, N2-(3-Aminosulphonyl-4-methylphenyl)-5-fluoro-N4-[3-oxo-4-cyanomethyl-benz[1,4]oxazin-6-yl]-2,4-pyrimidinediamine], the IC50 worked out at 0.62 µM. The figure for `N#CCN1C(=O)CSc2ccc(Nc3nc(Nc4ccc(S(N)(=O)=O)cc4)ncc3F)cc21` [Compound V-11, N2-(4-Aminosulphonylphenyl)-5-fluoro-N4-(3-oxo-4-cyanomethyl-benzo[1,4]thiazin-6-yl)-2,4-pyrimidinediamine] is 1.42 µM; for `N#CCN1C(=O)CSc2ccc(Nc3nc(Nc4cccc(S(N)(=O)=O)c4)ncc3F)cc21` [Compound V-12, N2-(3-Aminosulphonylphenyl)-5-fluoro-N4-(3-oxo-4-cyanomethyl-benzo[1,4]thiazin-6-yl)-2,4-pyrimidinediamine] it is 3.04 µM. Take `Cc1ccc(Nc2ncc(F)c(Nc3ccc4c(c3)N(CC#N)C(=O)CS4)n2)cc1S(N)(=O)=O` [Compound V-13, N2-(3-Aminosulphonyl4-methylphenyl)-5-fluoro-N4-(3-oxo-4-cyanomethyl-benzo[1,4]thiazin-6-yl)-2,4-pyrimidinediamine]: the IC50 stood at 1.2 µM. With `NS(=O)(=O)c1ccc(Nc2ncc(F)c(NCCc3ccc(-n4ccnc4)cc3)n2)cc1` [III-90, N2-(4-Aminosulfonylphenyl)-5-fluoro-N4-[4-(1-imidazolyl)phenethyl]-2,4-pyrimidinediamine], the IC50 came out at 2.63 µM. The result for `NS(=O)(=O)c1cccc(Nc2ncc(F)c(Nc3ccc(Cc4ccncc4)cc3)n2)c1` [III-128, N2-(3-Aminosulfonylphenyl)-5-fluoro-N4-[4-(4-pyridylmethyl)phenyl]-2,4-pyrimidinediamine p-Toluenesulfonic Acid Salt] reads 1.44 µM; that for `NS(=O)(=O)c1cccc(Nc2ncc(F)c(Nc3cccc(-c4cnco4)c3)n2)c1` [IV-1, N2-(3-Aminosulfonylphenyl)-5-fluoro-N4-[3-(1,3-oxazol-5-yl)phenyl]-2,4-pyrimidinediamine], 0.272 µM. Turning to `Cc1ccc(Nc2ncc(F)c(Nc3cccc(-c4cnco4)c3)n2)cc1S(N)(=O)=O` [IV-2, N2-(3-Aminosulfonyl-4-methylphenyl)-5-fluoro-N4-[3-(1,3-oxazol-5-yl)phenyl]-2,4-pyrimidinediamine], the IC50 came to 0.705 µM.

In the case of `NS(=O)(=O)c1cccc(Nc2ncc(F)c(Nc3ccc(-c4cnco4)cc3)n2)c1` [IV-5, N2-(3-Aminosulfonylphenyl)-5-fluoro-N4-[4-(1,3-oxazol-5-yl)phenyl]-2,4-pyrimidinediamine], the IC50 worked out at 0.504 µM.

For the compound `Cc1ccc(Nc2ncc(F)c(Nc3ccc(-c4cnco4)cc3)n2)cc1S(N)(=O)=O` [IV-6, N2-(3-Aminosulfonyl-4-methylphenyl)-5-fluoro-N4-[4-(1,3-oxazol-5-yl)phenyl]-2,4-pyrimidinediamine], the IC50 was determined as 0.88 µM.

Turning to `C#CCn1ccc2cc(Nc3nc(Nc4ccc(C)c(S(N)(=O)=O)c4)ncc3F)ccc21` [IX-1, N2-(3-Aminosulfonyl-4-methylphenyl)-5-fluoro-N4-[1-(propyn-3-yl)indol-5-yl]-2,4-pyrimidinediamine], the IC50 is 1.13 µM. With `C#CCn1ccc2cc(Nc3nc(Nc4cccc(S(N)(=O)=O)c4)ncc3F)ccc21` [IX-2, N2-(3-Aminosulfonylphenyl)-5-fluoro-N4-[1-(propyn-3-yl)indol-5-yl]-2,4-pyrimidinediamine], the IC50 was 1.77 µM.

As for `Cc1ccc(Nc2ncc(F)c(Nc3ccc4c(CC#N)c[nH]c4c3)n2)cc1S(N)(=O)=O` [IX-11, N2-(3-Aminosulfonyl-4-methylphenyl)-N4-(3-cyanomethyl-1H-indol-6-yl)-5-fluoro-2,4-pyrimidinediamine], the IC50 amounted to 2.24 µM. For `N#CCc1c[nH]c2cc(Nc3nc(Nc4cccc(S(N)(=O)=O)c4)ncc3F)ccc12` [IX-12, N2-(3-Aminosulfonylphenyl)-N4-(3-cyanomethyl-1H-indol-6-yl)-5-fluoro-2,4-pyrimidinediamine], the IC50 is 3.48 µM. The figure for `N#CCc1c[nH]c2ccc(Nc3nc(Nc4cccc(S(N)(=O)=O)c4)ncc3F)cc12` [IX-13, N2-(3-Aminosulfonylphenyl)-N4-(3-cyanomethyl-1H-indol-5-yl)-5-fluoro-2,4-pyrimidinediamine] is 1.85 µM; for `Cc1ccc(Nc2ncc(F)c(Nc3ccc4[nH]cc(CC#N)c4c3)n2)cc1S(N)(=O)=O` [IX-14, N2-(3-Aminosulfonyl-4-methylphenyl)-N4-(3-cyanomethyl-1H-indol-5-yl)-5-fluoro-2,4-pyrimidinediamine] it is 1.09 µM; for `N#CCc1c[nH]c2c(Nc3nc(Nc4cccc(S(N)(=O)=O)c4)ncc3F)cccc12` [IX-15, N2-(3-Aminosulfonylphenyl)-N4-(3-cyanomethyl-1H-indol-7-yl)-5-fluoro-2,4-pyrimidinediamine] it is 5.36 µM.

Consider `Cc1ccc(Nc2ncc(F)c(Nc3cccc4c(CC#N)c[nH]c34)n2)cc1S(N)(=O)=O` [IX-16, N2-(3-Aminosulfonyl-4-methylphenyl)-N4-(3-cyanomethyl-1H-indol-7-yl)-5-fluoro-2,4-pyrimidinediamine], for which the IC50 turned out to be 2.51 µM. With `NS(=O)(=O)c1cccc(Nc2ncc(F)c(Nc3ccc(C(=O)N4CCSCC4)cc3)n2)c1` [IX-34, N2-(3-Aminosulfonylphenyl)-5-fluoro-N4-[4-(4-thiomorpholinyl)carbonylphenyl]-2,4-pyrimidinediamine], the IC50 came to 3.95 µM. The figure for `Cc1ccc(Nc2ncc(F)c(Nc3ccc(C(=O)N4CCSCC4)cc3)n2)cc1S(N)(=O)=O` [IX-35, N2-(3-Aminosulfonyl-4-methylphenyl)-5-fluoro-N4-[4-(4-thiomorpholinyl)carbonylphenyl]-2,4-pyrimidinediamine] is 2.1 µM; for `COc1cc(Nc2nc(Nc3ccc(C)c(S(N)(=O)=O)c3)ncc2F)ccc1Cl` [VI-5, N2-(3-Aminosulfonyl-4-methylphenyl)-N4-(4-chloro-3-methoxyphenyl)-5-fluoro-2,4-pyrimidinediamine] it is 1.39 µM.

In the case of `Cc1ccc(Nc2ncc(F)c(Nc3ccc(Cl)c(Cl)c3)n2)cc1S(N)(=O)=O` [VI-6, N2-(3-Aminosulfonyl-4-methylphenyl)-N4-(3,4-dichlorophenyl)-5-fluoro-2,4-pyrimidinediamine], the IC50 came to 7.7 µM. Turning to `COc1cc(Nc2nc(Nc3ccc(Cl)c(S(N)(=O)=O)c3)ncc2F)ccc1Cl` [VI-11, N2-(3-Aminosulfonyl-4-chlorophenyl)-N4-(4-chloro-3-methoxyphenyl)-5-fluoro-2,4-pyrimidinediamine], the IC50 was found to be 7.14 µM.

Values taken from patent US11827628B2, “Compositions and methods for inhibition of the JAK pathway” (Rigel Pharmaceuticals, Inc., priority 2005, dated 2023).
